Conditions: daily for 42 days, with olaparib 150 mg 3 days/week
Description: Up to 3 cycles were delivered in the absence of disease progression or unacceptable toxicity. Patients progression free after 3 cycles were eligible for further cycles if approved by sponsor. […] Neurosurgical resection was mandatory in the expansion cohort.
If 2 or more of 6 patients at one dose level experienced a dose limiting toxicity (DLT), this was considered “not tolerated” and designated the maximum administered dose (MAD).

Cn1nnc2c(C(N)=O)ncn2c1=O [TMZ, temozolomide]
MTD / RP2D, TMZ dose: 75 mg/m^2
